From ChEMBL document CHEMBL1144384, “Hypoxia-selective activation of 5-fluorodeoxyuridine prodrug possessing indolequinone structure: radiolytic reduction and cytotoxicity characteristics” (Bioorg Med Chem Lett, 2005)

Assay: Inhibitory concentration required to reduce cellular survival to 50% towards murine tumor EMT6/KU cell line
Format: functional, cell-based
Conditions: Mus musculus

In the case of `O=c1[nH]c(=O)n([C@H]2C[C@H](O)[C@@H](CO)O2)cc1F` [FLOXURIDINE], the IC50 is reported as 8.1 µM.
